Here are results for twelve compounds from patent US5639603A, “Synthesizing and screening molecular diversity” (Affymax Technologies N.V., priority 1993, dated 1997).

pKd: −log10 of the molar value. Where a SMILES comes first, the peptide text is derived from it. Where no end group is shown, it is not given here. [ ]: non-standard residue; d: D form.

For one test, the target named is anti-dynorphin B mAb D32.39.
Assay: not given
The note with it: soluble hepta-peptide; see Cull et al.; cited from earlier work.
Consider “RQFKVVT (RQFKVVT-NH2) [H-Arg-Gln-Phe-Lys-Val-Val-Thr-NH2, C-terminal seven amino acid fragment of the opioid peptide dynorphin B; positive control]”, for which the negative-log Kd (pKd) is around 9.00.

Another test concerns the target monoclonal antibody D32.39. The test is described as follows: competition binding experiment with radiolabelled tracer peptide on D32.39-coated wells. The note with it: competition with 33P-labelled tracer LRRASLGGGRRQFKVVT 50 pM; wells coated with D32.39 0.1 μg/mL; 2 hr at 4° C.; IC50 taken as close to Kd. The protocol:
The binding affinities of various peptides for the monoclonal antibody D32.39 were measured in a competition binding experiment. […] The peptide mixtures were added to polystyrene wells coated with D32.39 (0.1 μg/mL). Samples were incubated 2 hr. at 4° C., the wells washed with PBS, and the radioactivity associated with each well was counted and used to generate a competitive binding curve. Under the conditions of the assay the IC50 should be close to the dissociation constant (Kd) for the peptide.
For `CC(=O)N[C@H](C(=O)N[C@@H](CCC(N)=O)C(=O)N[C@@H](Cc1ccccc1)C(=O)N[C@@H](CCCCN)C(=O)N[C@H](C(=O)N[C@H](C(=O)N[C@@H](CCCCN)C(=O)N[C@H](C(=O)O)[C@@H](C)O)[C@@H](C)O)C(C)C)[C@@H](C)O` [TQFKVTKT] (Ac-TQFKVTKT-OH), the negative-log Kd (pKd) was 6.25.

Consider `CC(=O)N[C@@H](CCCCN)C(=O)N[C@@H](CCC(N)=O)C(=O)N[C@@H](Cc1ccccc1)C(=O)N[C@@H](CCCCN)C(=O)N[C@H](C(=O)N[C@H](C(=O)N[C@@H](CCCCN)C(=O)N[C@H](C(=O)O)[C@@H](C)O)[C@@H](C)O)C(C)C` [KQFKVTKT] (Ac-KQFKVTKT-OH), for which the pKd is 6.47.

For `CC(=O)N[C@H](C(=O)N[C@@H](Cc1ccccc1)C(=O)N[C@@H](CCCNC(=N)N)C(=O)N[C@@H](C(=O)N[C@@H](Cc1ccccc1)C(=O)N[C@@H](CCCNC(=N)N)C(=O)N[C@H](C(=O)N[C@H](C(=O)O)[C@@H](C)O)C(C)C)C(C)C)[C@@H](C)O` [TFRvFRVT] (Ac-TFR[dV]FRVT-OH), the negative-log Kd (pKd) is 5.85.

As to TVRQFKTT, the negative logarithm of the Kd (pKd) is 8.06. Consider KQFKVTQT, for which the negative logarithm of the Kd (pKd) is 6.39.

As to `CC(=O)N[C@H](C(=O)N[C@@H](Cc1ccccc1)C(=O)N[C@@H](CCCNC(=N)N)C(=O)N[C@@H](CCC(N)=O)C(=O)N[C@@H](Cc1ccccc1)C(=O)N[C@@H](CCCCN)C(=O)N[C@H](C(=O)N[C@H](C(=O)O)[C@@H](C)O)C(C)C)[C@@H](C)O` [TFRQFKVT] (Ac-TFRQFKVT-OH), the pKd was 9.54. RQFRTVQT: the negative-log Kd (pKd) was 7.12.

For QQFKVVQT, the pKd is 6.43.

`CC(=O)N[C@@H](CCC(N)=O)C(=O)N[C@@H](C(=O)N[C@@H](CCCNC(=N)N)C(=O)N[C@@H](CCC(N)=O)C(=O)N[C@@H](Cc1ccccc1)C(=O)N[C@@H](CCCCN)C(=O)N[C@H](C(=O)N[C@H](C(=O)O)[C@@H](C)O)[C@@H](C)O)C(C)C` [QvRQFKTT] (Ac-Q[dV]RQFKTT-OH) had a pKd of 7.80. The same measure, in the same setting: to TTRRFRVT belongs 8.37.

For the next test, the system named is anti-dynorphin B mAb D32.39. Description: flow cytometry (FACS) staining of beads with mAb D32.39 and phycoerythrin-conjugated second antibody. The class given is binding, mouse. The note with it: 10 μm beads carrying peptide and 69-mer oligonucleotide tag; blank beads unstained. The protocol: The binding of mAb D32.39 to control beads and to the bead library was analyzed by flow cytometry. […] By contrast, only a small fraction of the encoded library bound D32.39. Analysis of 10^5 events indicated ~2% of the library stained above background levels. […] The amplification reactions contained dUTP and uracil DNA glycosidase to prevent carryover contamination with soluble product from previous amplifications (see Longo et al., 1990, Gene 93: 125-128, incorporated herein by reference).
A portion of a library (typically 0.5-2 mg of beads) was suspended in blocking buffer (PBS, 1% BSA, 0.05% Tween-20) and incubated at room temperature for 1 hr. The beads were pelleted by centrifugation and resuspended in a solution of mAb D32.39 ([…] in blocking buffer). The suspension was incubated on ice for 30 min., pelleted by centrifugation, and washed with blocking buffer. The beads were then suspended in a solution of phycoerythrin-conjugated goat anti-mouse antibody (Molecular Probes) for 20 min. on ice. The beads were washed in blocking buffer and diluted in PBS for delivery into the fluorescence activated cell sorting (FACS) instrument (Becton Dickinson FACStar Plus). Beads which had bound the mAb D32.39 were identified by their acquired fluorescence. Individual beads from both the most brightly stained 0.17% of the library and from the region having the lowest fluorescence (ca. 98%) were sorted into PCR microfuge vials. Specific binding of D32.39 to the beads was blocked by preincubation of the mAb with the soluble peptide Ac-RQFKVVT-OH (SEQ ID NO:2) at a final concentration of 10 μM.
Regarding “RQFKVVT (RQFKVVT-NH2) [H-Arg-Gln-Phe-Lys-Val-Val-Thr-NH2, C-terminal seven amino acid fragment of the opioid peptide dynorphin B; positive control]”, the “staining by mAb D32.39 of beads carrying the sequence” value is “strongly stained”.

Still in this test, the particulars now being: flow cytometry; soluble peptide at final concentration 10 μM.
With “RQFKVVT (RQFKVVT-NH2) [H-Arg-Gln-Phe-Lys-Val-Val-Thr-NH2, C-terminal seven amino acid fragment of the opioid peptide dynorphin B; positive control]”, the “blocking of D32.39 binding to library beads by preincubating the mAb with soluble peptide” value is reported as “completely blocked”.

`CC(=O)N[C@@H](CCCNC(=N)N)C(=O)N[C@@H](CCC(N)=O)C(=O)N[C@@H](Cc1ccccc1)C(=O)N[C@@H](CCCCN)C(=O)N[C@H](C(=O)N[C@H](C(=O)N[C@H](C(=O)O)[C@@H](C)O)C(C)C)C(C)C` [Ac-RQFKVVT-OH] (Ac-RQFKVVT-OH): the “blocking of D32.39 binding to library beads by preincubating the mAb with soluble peptide” value is “blocked”.
